The structures appear in SMILES notation.

The test system of the test is kynurenine production in IFN-γ-treated KATO-III cells. The experiment in a line: Inhibitory activity on kynurenine production (Test Example 1). Conditions: Homo sapiens, IFN-γ treatment, culture for 96 hours, read-out: IC50 value, inhibition of kynurenine production. The class given is cell-based. Summed up: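 KATO-III human gastric cancer cells (2,000/well, RPMI 1640 + 10% FBS) were cultured with compound and IFN-γ (31.25 ng/mL in the cell suspension), DMSO ≤0.1%, for 96 h at 37 °C, 5% CO2. Kynurenine was read at A480 after TCA at 65 °C and p-dimethylaminobenzaldehyde. Inhibition used IFN-γ-treated and untreated DMSO wells as references.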
In general, IC50 refers to the concentration needed to halve the response being measured. For the compound `Cc1nc(C)c(S(=O)(=O)Nc2nc3ccccc3nc2OC(c2cccnc2)C(F)(F)F)s1` (stereo not shown) [Compound 163, 2,4-dimethyl-N-{3-[2,2,2-trifluoro-1-(pyridin-3-yl)ethoxy]-quinoxalin-2-yl}thiazole-5-sulfonamide], the IC50 was below 1 µM.
On to `O=S(=O)(Nc1nc2ccccc2nc1OCc1cccnc1)c1cccc(Cl)c1Cl` [Compound 6, 2,3-dichloro-N-{3-[(pyridin-3-yl)methoxy]quinoxalin-2-yl}-benzenesulfonamide], for which the IC50 lay in the range of 1 to 10 µM.
For `CCOCCNS(=O)(=O)Nc1nc2ccccc2nc1OC(c1cccnc1)C(F)(F)F` (stereo not shown) [Compound 207, N-{3-[2,2,2-trifluoro-1-(pyridin-3-yl)ethoxy]quinoxalin-2-yl}-N′-(2-ethoxyethyl)-sulfuric diamide], the 50% inhibitory concentration (IC50) is below 1 µM.
As to `CCCS(=O)(=O)Nc1nc2ccccc2nc1OC(C(F)(F)F)C1(O)CCOCC1` (stereo not shown) [Compound 352, N-{3-[2,2,2-trifluoro-1-(4-hydroxytetrahydro-2H-pyran-4-yl)ethoxy]quinoxalin-2-yl}propane-1-sulfonamide], the concentration for half-maximal inhibition (IC50) is 1 to 10 µM.
Take `CC(Oc1nc2ccccc2nc1NS(=O)(=O)c1ccccc1Cl)C(C)(C)C` (stereo not shown) [Compound 231, 2-chloro-N-[3-(3,3-dimethylbutan-2-yloxy)quinoxalin-2-yl]-benzenesulfonamide]: the half-inhibitory concentration (IC50) was 1 to 10 µM.
As for `CC1(COc2nc3ccccc3nc2NS(=O)(=O)c2ccccc2Cl)CCOCC1` [Compound 246, 2-chloro-N-{3-[(4-methyltetrahydro-2H-pyran-4-yl)methoxy]-quinoxalin-2-yl}benzenesulfonamide], the concentration for half-maximal inhibition (IC50) was below 1 µM.
As for `CC(C)(COc1nc2ccccc2nc1NS(=O)(=O)c1ccccc1Cl)c1cccnc1` [Compound 167, 2-chloro-N-{3-[2-methyl-2-(pyridin-3-yl)propoxy]quinoxalin-2-yl}benzenesulfonamide], the IC50 was below 1 µM.
In the case of `CCCNS(=O)(=O)Nc1nc2ccccc2nc1OC(c1ccc(C#N)cc1)C(F)(F)F` (stereo not shown) [Compound 292, N-{3-[1-(4-cyanophenyl)-2,2,2-trifluoroethoxy]quinoxalin-2-yl}-N′-propyl-sulfuric diamide], the IC50 is below 1 µM.
With `Cc1nn(C)c(Cl)c1S(=O)(=O)Nc1nc2ccccc2nc1OC(c1cncs1)C(F)(F)F` (stereo not shown) [Compound 186, 5-chloro-1,3-dimethyl-N-{3-[2,2,2-trifluoro-1-(thiazol-5-yl)ethoxy]quinoxalin-2-yl}-1H-pyrazole-4-sulfonamide], the half-maximal inhibitory concentration (IC50) was below 1 µM.
Regarding `O=S(=O)(Nc1nc2ccccc2nc1OC(c1ccncc1)C(F)(F)F)c1ccccc1Cl` (stereo not shown) [Compound 49, 2-chloro-N-{3-[2,2,2-trifluoro-1-(pyridin-4-yl)ethoxy]quinoxalin-2-yl}benzenesulfonamide], the IC50 was below 1 µM.
On to `Cc1cc(S(=O)(=O)Nc2nc3ccccc3nc2OC(c2cccnc2)C(F)(F)F)c(C(F)(F)F)o1` (stereo not shown) [Compound 143, 5-methyl-N-{3-[2,2,2-trifluoro-1-(pyridin-3-yl)ethoxy]-quinoxalin-2-yl}-2-(trifluoromethyl)furan-3-sulfonamide], for which the IC50 is below 1 µM.
On to `O=S(=O)(Nc1nc2ccccc2nc1OC(c1cc2ccccc2o1)C(F)(F)F)c1ccccc1Cl` (stereo not shown) [Compound 104, 2-chloro-N-{3-[2,2,2-trifluoro-1-(benzofuran-2-yl)ethoxy]-quinoxalin-2-yl}benzenesulfonamide], for which the IC50 is below 1 µM.
On to `N#Cc1ccc(C(Oc2nc3ccccc3nc2NS(=O)(=O)c2ccccc2Cl)C(F)(F)F)cn1` (stereo not shown) [Compound 54, 2-chloro-N-{3-[2,2,2-trifluoro-1-(6-cyanopyridin-3-yl)-ethoxy]quinoxalin-2-yl}benzenesulfonamide], for which the concentration for half-maximal inhibition (IC50) is below 1 µM.
As for `Cc1noc(C)c1S(=O)(=O)Nc1nc2ccccc2nc1OC(c1ccc(CN(C)C)cc1)C(F)(F)F` (stereo not shown) [Compound 204, N-{3-[1-(4-((dimethylamino)methyl)phenyl)-2,2,2-trifluoroethoxy]quinoxalin-2-yl}-3,5-dimethylisoxazole-4-sulfonamide], the half-inhibitory concentration (IC50) was below 1 µM.
For `CCS(=O)(=O)Nc1nc2ccccc2nc1OC(c1cccnc1)C(F)(F)F` (stereo not shown) [Compound 190, N-{3-[2,2,2-trifluoro-1-(pyridin-3-yl)ethoxy]quinoxalin-2-yl}ethanesulfonamide], the 50% inhibitory concentration (IC50) was below 1 µM.
`Cn1cc(C(Oc2nc3ccccc3nc2NS(=O)(=O)c2cccc(Cl)c2Cl)C(F)(F)F)cn1` (stereo not shown) [Compound 96, 2,3-dichloro-N-{3-[2,2,2-trifluoro-1-(1-methyl-1H-pyrazol-4-yl)ethoxy]quinoxalin-2-yl}benzenesulfonamide]: the IC50 was below 1 µM.
To `O=S(=O)(Nc1nc2ccccc2nc1OC(c1cccnc1)C(F)(F)F)c1cc(F)cc(F)c1` (stereo not shown) [Compound 153, 3,5-difluoro-N-{3-[2,2,2-trifluoro-1-(pyridin-3-yl)ethoxy]-quinoxalin-2-yl}benzenesulfonamide] belongs below 1 µM; to `Cc1ccc(C(Oc2nc3ccccc3nc2NS(=O)(=O)NC2CC2)C(F)(F)F)c[n+]1[O-]` (stereo not shown) [Compound 289, 5-{1-[3-(N-cyclopropylsulfamoylamino)quinoxalin-2-yloxy]-2,2,2-trifluoroethyl}-2-methylpyridine 1-oxide], 1 to 10 µM; to `N#Cc1cccc(C(Oc2nc3ccccc3nc2NS(=O)(=O)CC2CC2)C(F)(F)F)c1` (stereo not shown) [Compound 309, 1-cyclopropyl-N-{3-[1-(3-cyanophenyl)-2,2,2-trifluoroethoxy]quinoxalin-2-yl}methanesulfonamide], below 1 µM.
With `O=S(=O)(Nc1nc2ccncc2nc1OC(c1cccnc1)C(F)(F)F)c1ccccc1Cl` (stereo not shown) [Compound 362, 2-chloro-N-{2-[2,2,2-trifluoro-1-(pyridin-3-yl)ethoxy]-pyrido[3,4-b]pyrazin-2-yl}benzenesulfonamide], the half-maximal inhibitory concentration (IC50) was in the range of 1 to 10 µM.
For `CC(C)C(Oc1nc2ccccc2nc1NS(=O)(=O)c1cccc(Cl)c1Cl)c1cccnc1` (stereo not shown) [Compound 34, 2,3-dichloro-N-{3-[2-methyl-1-(pyridin-3-yl)propoxy]-quinoxalin-2-yl}benzenesulfonamide], the half-maximal inhibitory concentration (IC50) is below 1 µM.
With `Cc1noc(C)c1S(=O)(=O)Nc1nc2ccccc2nc1OC(C1CCOCC1)C(F)(F)F` (stereo not shown) [Compound 119, 3,5-dimethyl-N-{3-[2,2,2-trifluoro-1-(tetrahydro-2H-pyran-4-yl)ethoxy]quinoxalin-2-yl}isoxazole-4-sulfonamide], the IC50 was below 1 µM.
To `O=S(=O)(Nc1nc2ccccc2nc1OC(C1CCOCC1)C(F)(F)F)c1ccccc1Cl` (stereo not shown) [Compound 116, 2-chloro-N-{3-[2,2,2-trifluoro-1-(tetrahydro-2H-pyran-4-yl)ethoxy]quinoxalin-2-yl}benzenesulfonamide] belongs below 1 µM.
Consider `Cc1ccc(C(Oc2nc3ccccc3nc2NS(=O)(=O)c2ccccc2Cl)C(F)(F)F)cn1` (stereo not shown) [Compound 41, 2-chloro-N-{3-[2,2,2-trifluoro-1-(6-methylpyridin-3-yl)-ethoxy]quinoxalin-2-yl}benzenesulfonamide], for which the concentration for half-maximal inhibition (IC50) is below 1 µM.
Take `CCCS(=O)(=O)Nc1nc2ccccc2nc1OC(C(F)(F)F)C(F)(F)F` [Compound 322, N-{3-[(1,1,1,3,3,3-hexafluoropropan-2-yl)oxy]quinoxalin-2-yl}propane-1-sulfonamide]: the concentration for half-maximal inhibition (IC50) was below 1 µM.
Turning to `CCCNS(=O)(=O)Nc1nc2ccccc2nc1OC(c1cncn1C)C(F)(F)F` (stereo not shown) [Compound 282, N-{3-[2,2,2-trifluoro-1-(1-methyl-1H-imidazol-5-yl)ethoxy]-quinoxalin-2-yl}-N′-propyl-sulfuric diamide], the half-inhibitory concentration (IC50) was below 1 µM.
In the case of `Cn1c(C(Oc2nc3ccccc3nc2NS(=O)(=O)c2ccccc2Cl)C(F)(F)F)cc2ccccc21` (stereo not shown) [Compound 127, 2-chloro-N-{3-[2,2,2-trifluoro-1-(1-methyl-1H-indol-2-yl)-ethoxy]quinoxalin-2-yl}benzenesulfonamide], the IC50 is below 1 µM.
To `O=S(=O)(Nc1nc2ccccc2nc1OCc1ccc2ccccc2c1)c1ccc(C(F)(F)F)cc1` [Compound 23, 4-(trifluoromethyl)-N-{3-[(2-naphthyl)methoxy]quinoxalin-2-yl}benzenesulfonamide] belongs below 1 µM.
Consider `CCCS(=O)(=O)Nc1nc2ccccc2nc1OC(C1CCN(C(=O)C2CC2)CC1)C(F)(F)F` (stereo not shown) [Compound 341, N-{3-[2,2,2-trifluoro-1-(1-cyclopropanecarbonylpiperidin-4-yl)ethoxy]quinoxalin-2-yl}propane-1-sulfonamide], for which the IC50 is below 1 µM.
`O=S(=O)(Nc1nc2ccccc2nc1OCc1ccccc1)c1cccc(Cl)c1Cl` [Compound 32, 2,3-dichloro-N-(3-benzyloxyquinoxalin-2-yl)benzenesulfonamide]: the IC50 lay in the range of 1 to 10 µM.
For the compound `CCCS(=O)(=O)Nc1nc2ccccc2nc1OC(c1cnc(C)s1)C(F)(F)F` (stereo not shown) [Compound 315, N-{3-[2,2,2-trifluoro-1-(2-methylthiazol-5-yl)ethoxy]-quinoxalin-2-yl}propane-1-sulfonamide], the IC50 was below 1 µM.
With `Cc1noc(C)c1S(=O)(=O)Nc1nc2ccccc2nc1OC(c1cc2ccccc2n1C)C(F)(F)F` (stereo not shown) [Compound 128, 3,5-dimethyl-N-{3-[2,2,2-trifluoro-1-(1-methyl-1H-indol-2-yl)ethoxy]quinoxalin-2-yl}isoxazole-4-sulfonamide], the half-inhibitory concentration (IC50) was below 1 µM.
Consider `N#Cc1cccc(C(Oc2nc3ccccc3nc2NS(=O)(=O)c2ccccc2Cl)C(F)(F)F)c1` (stereo not shown) [Compound 82, 2-chloro-N-{3-[2,2,2-trifluoro-1-(3-cyanophenyl)ethoxy]-quinoxalin-2-yl}benzenesulfonamide], for which the IC50 is below 1 µM.
As for `CCCNS(=O)(=O)Nc1nc2ccccc2nc1OC(c1ccc(Cl)nc1)C(F)(F)F` (stereo not shown) [Compound 283, N-{3-[1-(6-chloropyridin-3-yl)-2,2,2-trifluoroethoxy]-quinoxalin-2-yl}-N′-propyl-sulfuric diamide], the IC50 is below 1 µM.

Source of the values: patent US8673908B2, “Kynurenine production inhibitor” (Kyowa Hakko Kirin Co., Ltd., priority 2008, dated 2014).
